Test results: PubChem BioAssay (NCI)
Values joined by “and” are separate entries in the source; they are usually repeats but may differ in a detail not shown here. Identical values can stand only once.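 Following 48 hours of exposure in 96-well plates, responses at five concentrations were used to interpolate endpoints linearly. GI50 is the concentration that inhibits growth by half. TGI marks complete inhibition of growth.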

Tests used:
Assay in all cases: inhibition of tumour cell growth, NCI panel, 48 h
[1] = system: CAKI-1 renal
[2] = system: HCT-15 colon
[3] = system: HOP-62 NSCLC
[4] = system: HS 578T breast
[5] = system: M14 melanoma
[6] = system: MDA-MB-231 breast
[7] = system: OVCAR-8 ovarian
[8] = system: SK-OV-3 ovarian
[9] = system: SN12C renal
[10] = system: UO-31 renal

Compound	GI50 [1] [µM]	TGI [1]	GI50 [2]	TGI [2]	GI50 [3]	TGI [3]	GI50 [4]	TGI [4]	GI50 [5]	TGI [5]	GI50 [6]	TGI [6]	GI50 [7]	TGI [7]	GI50 [8]	TGI [8]	GI50 [9]	TGI [9]	GI50 [10]	TGI [10]
O=C(O)c1ccc2c(c1)CCCC(c1ccc(Cl)cc1Cl)=C2c1ccc(O[C@H]2CCN(CCCF)C2)cc1	11.5	24 µM	6.38 µM	20.1 µM	15 µM	33.6 µM	12.9 µM	31.8 µM	13.2 µM	28.7 µM	16.4 µM	31.6 µM	13.5 µM	33.7 µM	16.7 µM	30.8 µM	15.2 µM	31 µM	9.76 µM	25.6 µM
COC(=O)c1nc(Cl)nc(Cl)c1Cl		32.1 µM		46.9 µM		> 100 µM		85 µM		38.3 µM		42.9 µM		54.5 µM		> 100 µM		45.1 µM		35.7 µM
COc1ccc(-c2ccc(-c3ccc(C(=N)N)cn3)o2)cc1	6.79	20.7 µM	4.62 µM	17.7 µM	10.5 µM	22.6 µM	10.9 µM	36.7 µM	2.12 µM	4.68 µM	3.34 µM	15.3 µM	11.3 µM	31.2 µM	10.2 µM	21.8 µM	8.01 µM	22.5 µM	2.68 µM	17.3 µM
OCCNc1ncnc2c1ncn2Cc1cccc(COc2cccc(OCc3cccc(Cn4cnc5c(NCCO)ncnc54)c3)c2)c1	18.4	42.1 µM	30.9 µM	> 100 µM			11.8 µM	28.7 µM	17.2 µM	33.3 µM	14.5 µM	29.3 µM	18.5 µM	38.1 µM	> 100 µM	> 100 µM	17 µM	34.5 µM	23.1 µM	56.6 µM
Cc1cc(Cl)ccc1Nc1nc(C(F)(F)F)ccc1C(=O)N/N=C/c1ccc([N+](=O)[O-])cc1	2.24	11.4 µM	0.803 µM		3.35 µM	> 35.7 µM	1.14 µM	2.91 µM	2.18 µM	7.96 µM	1.86 µM	5.78 µM	1.15 µM		2.16 µM	7.27 µM	2.92 µM	> 100 µM	1.48 µM	6.93 µM
COc1ccc2[nH]c(O)c(C(=Nc3ccc(N(C)C(=O)CN4CCN(C)CC4)cc3)c3ccccc3)c2c1	0.847	5.92 µM	2.65 µM	12 µM	1.12 µM	12.3 µM	1.09 µM	4.67 µM	1.26 µM	2.89 µM	1.88 µM	5.17 µM	3.24 µM	14 µM	2.96 µM	9.32 µM	0.74 µM	10.4 µM	1.45 µM	8.45 µM
CCOc1cccc(/C=N/NC(=O)C(=O)Nc2cccc(C(F)(F)F)c2)c1O	0.528	6.49 µM	0.459 µM	> 100 µM	3.1 µM	53.6 µM	12 µM	> 100 µM	1.52 µM	12.6 µM	1.43 µM	> 100 µM	1.29 µM	> 100 µM	5.28 µM	> 100 µM	2.66 µM	> 100 µM	0.63 µM	18.5 µM
CCC[n+]1cc2cc(OC)c(OC)cc2c2c1-c1cc3c(cc1C2)OCO3	7.14	44.2 µM	46.9 µM	> 100 µM	3.92 µM	19.7 µM	1.63 µM	13.6 µM	7.64 µM	22 µM	4.71 µM	15.4 µM	2.18 µM	6.23 µM	25.6 µM	52.3 µM	0.638 µM	6.84 µM	13.1 µM	35.1 µM
C=C1C(=O)O[C@H]2[C@H]1CC/C(COC(=O)c1cc3cc(Cl)ccc3[nH]1)=C\CC[C@@]1(C)O[C@@H]21	1.19	2.42 µM	1 µM	2.43 µM	2.22 µM	5.88 µM	2.25 µM	6.48 µM	1.47 µM	3.4 µM	1.32 µM	2.85 µM	1.34 µM	3.32 µM	10.2 µM	21.8 µM	1.7 µM	3.57 µM	1.21 µM	2.56 µM
Cn1c2c(c3ccc(Cl)c(Cl)c31)C(C#N)C1(CCNCC1)NC2=O (stereo not drawn)	0.384	1.75 µM	2.4 µM	7.88 µM	1.47 µM	3.93 µM	1.13 µM	3.61 µM	1.54 µM	3.3 µM	1.54 µM	3.46 µM	2.83 µM	8.85 µM	2.73 µM	8.97 µM	2.51 µM	12.6 µM	1.23 µM	4.46 µM
C=CC(=O)Nc1cc2c(Nc3ccc(F)c(Cl)c3)ncnc2cc1OCCCN1CCOCC1		2.67 µM and > 10 µM	1.4 µM and 2.17 µM	3.6 µM and > 6.04 µM	3.27 µM and > 5.63 µM	13.9 µM and > 10 µM	2.05 µM and 2.21 µM	7.21 µM and > 10 µM	1.7 µM and 4.48 µM	3.52 µM and > 10 µM	1.74 µM and 2.32 µM	4.71 µM and 9.93 µM	1.77 µM and 2.54 µM	6.67 µM and > 10 µM	0.0791 µM and 0.127 µM	4.1 µM and > 9.32 µM	0.805 µM and 1.59 µM	6.8 µM and > 10 µM	0.288 µM and 0.103 µM	12.9 µM and > 8.65 µM
Fc1cc2[nH]ncc2c2c3c(c(-c4cn[nH]c4C(F)(F)F)nc12)C1CCC3C1 (stereo not drawn)	0.602	3.51 µM	1.33 µM	7.28 µM	0.97 µM	3.75 µM	0.808 µM	2.67 µM	0.791 µM	3.53 µM	0.724 µM	3.45 µM	1.21 µM	6.74 µM	0.729 µM	2.26 µM	0.96 µM	5.18 µM	0.767 µM	1.97 µM
Nc1ccc(C(=O)CC(N)C(=O)O)cc1O (stereo not drawn)		> 100 µM		> 100 µM		> 100 µM		> 100 µM		> 100 µM		> 100 µM		> 100 µM		> 100 µM		> 100 µM		> 100 µM
O=C(O)C1CCCCC1C(=O)O.[NH-]C1CCC1.[NH2-].[Pt+2] (stereo not drawn)	2.61	17.4 µM	17.3 µM	34.5 µM	77 µM	> 100 µM	19.3 µM	57 µM	12.6 µM	27.3 µM	18.8 µM	38.2 µM	> 100 µM	> 100 µM	48.7 µM	> 100 µM	11.8 µM	26.7 µM	19.4 µM	50.3 µM
CCn1c(-c2nonc2N)nc2c(C#CC(C)(C)O)nc(OCCNC)cc21	> 18.2	> 25 µM	9.67 µM	> 25 µM	7.81 µM	> 25 µM	6.03 µM	> 25 µM	8.15 µM	22.6 µM	8.9 µM	> 25 µM	7.81 µM	> 25 µM	5.74 µM	> 25 µM	7.84 µM	> 25 µM	8.9 µM	> 25 µM
Nc1ccccc1C#C/C=C\C#Cc1ccccc1[N+](=O)[O-]	3.28	23 µM	0.718 µM	21.7 µM	17.5 µM	48.6 µM	4.99 µM	> 100 µM	8.08 µM	26.9 µM	2.61 µM	14.6 µM	4.83 µM	32.9 µM	9.26 µM	60.9 µM	3.18 µM	13.7 µM	10.5 µM	28.4 µM
COc1ccc(-c2oc3c(OC)c(OC)c(OC)c(OC)c3c(=O)c2OC)cc1OC		> 100 µM		> 100 µM		59.8 µM		56.3 µM		> 100 µM		> 100 µM		93.6 µM		> 100 µM		> 100 µM		> 100 µM
COc1cc2c(=O)n(CCN)c3c4cc5c(cc4ccc3c2cc1OC)OCO5	0.382	5.94 µM	0.651 µM	2.19 µM	0.444 µM	2.27 µM	2.8 µM	11.7 µM	0.425 µM	1.89 µM	1.23 µM	2.66 µM	0.988 µM	3.91 µM	1.24 µM	12 µM	0.723 µM	2.32 µM	0.605 µM	2.1 µM
CNCCn1c(=O)c2cc(OC)c(OC)cc2c2ccc3cc4c(cc3c21)OCO4	0.0718	0.588 µM	0.175 µM	3.06 µM	0.0705 µM	1.08 µM	0.835 µM	8.39 µM	0.0786 µM	0.399 µM	0.335 µM	3.66 µM	0.169 µM	6.37 µM	0.157 µM	1.32 µM	0.173 µM	3.97 µM	0.123 µM	0.543 µM
Cc1[nH]nc(C(=O)n2nc(N)c3ccccc32)c1[N+](=O)[O-]	> 100	> 100 µM	> 63.5 µM	> 100 µM	> 100 µM	> 100 µM	> 100 µM	> 100 µM	> 100 µM	> 100 µM	> 100 µM	> 100 µM	> 100 µM	> 100 µM	> 100 µM	> 100 µM	> 100 µM	> 100 µM	> 78.6 µM	> 100 µM
Cc1c(C(=O)NCCN2CCOCC2)cn2ncnc(Oc3ccc(NC(=O)Nc4ccc(Cl)c(C(F)(F)F)c4)cc3)c12	1.46	2.92 µM	1.44 µM	2.98 µM	1.99 µM	3.92 µM	1.48 µM	3.99 µM	1.08 µM	2.55 µM	1.31 µM	2.91 µM	3.1 µM	> 100 µM					2.18 µM	3.83 µM
CCOC(=O)/C=C/C1=C(c2cccs2)c2ccccc2CC1	43.1	> 100 µM	16.5 µM	34 µM	38 µM	> 100 µM	28.5 µM	99.1 µM	32 µM	> 100 µM	20.5 µM	64.7 µM	30.5 µM	> 100 µM	31.6 µM	> 100 µM	28.3 µM	> 100 µM	33.5 µM	> 100 µM
COc1ccc2c(c1)/C(=C\c1c(Cl)[nH]c3ccc(OC)cc13)C(=O)N2	> 100	> 100 µM	> 100 µM	> 100 µM	32.6 µM	95.2 µM	29.9 µM	81.2 µM	21.9 µM	39.8 µM	27.8 µM	75.2 µM	34.1 µM	> 100 µM	41.9 µM	> 100 µM			87.1 µM	> 100 µM
Cc1ccc(-c2csc(NC(=O)CN3CCN(c4cc5c(cc4F)c(=O)c(C(=O)O)cn5C4CC4)CC3)n2)cc1			0.441 µM	> 100 µM	0.393 µM	14.6 µM	0.749 µM	31.7 µM	1.63 µM	32.9 µM	2.08 µM	13.7 µM	0.388 µM	11.7 µM	1.3 µM	5.52 µM	0.413 µM	15.4 µM	1.04 µM	41.1 µM
CCN(CC)C(=S)Oc1cc2oc(=O)cc(C)c2cc1Cl		> 100 µM		> 100 µM		> 100 µM		> 100 µM		> 100 µM		> 100 µM		> 100 µM				> 100 µM		> 100 µM
O=c1cccc(C2CC(CO)C3CCCCN3C2)[nH]1 (stereo not drawn)		> 100 µM		> 100 µM				> 100 µM		> 100 µM		> 100 µM		> 100 µM		> 100 µM		> 100 µM		> 100 µM
COc1cc(/C=C2\C(=O)Nc3ccc(N(C)C)cc32)cc(OC)c1OC	5.78	> 80.5 µM	1.23 µM	49.8 µM	8.48 µM	50.2 µM	3.89 µM	> 100 µM			4.26 µM	> 63.8 µM	4.46 µM	> 79.4 µM	3.55 µM	30.4 µM	4.26 µM	42.3 µM	3.17 µM	> 87.4 µM
